System: Balb/c mice
Experiment: Polypeptide chip-based vaccine immunogenicity scoring system
Format: in vivo
Design: key to A2: whether the 95 percentile of the last sampling is increased compared with the end point: Y = rise; N = no rise
Settings: for A: 95 percentile grouping number score / B: Mouse performance score: total score = 5; for C1: #A timing-sequence response peptide fragment set / C2: #B vaccine specificity peptide fragment set / C3: Intersection of A and B / C4: Percentage of the intersection in set B / C: Timing-sequence response and specificity score: value of the whole mix
[1] = Embodiment III, polypeptide-KLH
[2] = Embodiment III, polypeptide-KLH, Mix1-10
[3] = Embodiment III, polypeptide-KLH, A*3 + B*2 + C*1
[4] = adjuvant AddaVax, 7 peptides co-immunized in mice
[5] = adjuvant Adju-Phos, 7 peptides co-immunized in mice
[6] = adjuvant Alhydrogel, 7 peptides co-immunized in mice
[7] = adjuvant Imjet Alumn, 7 peptides co-immunized in mice
[8] = adjuvant MA103A, 7 peptides co-immunized in mice
[9] = adjuvant MA103B, 7 peptides co-immunized in mice

SVYAWNRKR (SARS-CoV-2) [SEQ ID NO:3]
A2: whether the 95 percentile of the last sampling is increased compared with the end point (Embodiment II, Combination 1): N | B1: D 0-D 14 95 percentile rise in the number of mice (Embodiment II, Combination 1): 5 | B2: D 0-D 21 95 percentile rise in the number of mice (Embodiment II, Combination 1): 5 | B3: D 14-D 21 95 percentile rise in the number of mice (Embodiment II, Combination 1): 1 | B4: D 21-D 28 95 percentile rise in the number of mice (Embodiment II, Combination 1): 2 | Total single peptide (Embodiment II, Combination 1, A*3 + B*2 + C*1): 10.7 | A: 95 percentile grouping number score (Embodiment II, Combination 1): 1 | B: Mouse performance score (Embodiment II, Combination 1): 3.6 | A1: difference between a highest median and a D 0 median (95 percentile) (Embodiment II, mice immunized with Combination 1): 0.05 | B1: D 0-D 14 95 percentile rise in the number of mice [1]: 3 | B2: D 0-D 21 95 percentile rise in the number of mice [1]: 3 | B3: D 14-D 21 95 percentile rise in the number of mice [1]: 2 | B4: D 21-D 28 95 percentile rise in the number of mice [1]: 1 | A1: difference between a highest median and a D 0 median (95 percentile) [2]: 0.13 | A2: whether the 95 percentile of the last sampling is increased compared with the end point [2]: N | Total single peptide [3]: 18.7 | A: 95 percentile grouping number score [1]: 4.5 | B: Mouse performance score [1]: 2.1 | C1: #A timing-sequence response peptide fragment set [1]: 823 | C2: #B vaccine specificity peptide fragment set [1]: 398 | C3: Intersection of A and B [1]: 7 | C4: Percentage of the intersection in set B [1]: 1.759 | C: Timing-sequence response and specificity score [1]: 1 | 1) 95 percentile grouping number A [4]: 4 | 1) 95 percentile grouping number A1 [4]: 0.05 | 2) Mouse performance B [4]: 3.5 | 2) Mouse performance B1 [4]: 3 | 2) Mouse performance B2 [4]: 5 | 2) Mouse performance B3 [4]: 4 | 3) Timing-sequence response and specificity C [4]: 0 | 3) Timing-sequence response and specificity C1 [4]: 237 | 3) Timing-sequence response and specificity C2 [4]: 1244 | 3) Timing-sequence response and specificity C3 [4]: 0 | 3) Timing-sequence response and specificity C4 [4]: 0.000 | Total single peptide [4]: 19 | 1) 95 percentile grouping number A [5]: 3.5 | 1) 95 percentile grouping number A1 [5]: 0.05 | 2) Mouse performance B [5]: 3 | 2) Mouse performance B1 [5]: 4 | 2) Mouse performance B2 [5]: 5 | 2) Mouse performance B3 [5]: 2 | 3) Timing-sequence response and specificity C [5]: 0 | 3) Timing-sequence response and specificity C1 [5]: 203 | 3) Timing-sequence response and specificity C2 [5]: 1244 | 3) Timing-sequence response and specificity C3 [5]: 0 | 3) Timing-sequence response and specificity C4 [5]: 0.000 | Total single peptide [5]: 16.5 | 1) 95 percentile grouping number A [6]: 1 | 1) 95 percentile grouping number A1 [6]: 0.012 | 2) Mouse performance B [6]: 0.8 | 2) Mouse performance B1 [6]: 2 | 2) Mouse performance B2 [6]: 1 | 2) Mouse performance B3 [6]: 0 | 3) Timing-sequence response and specificity C [6]: 1 | 3) Timing-sequence response and specificity C1 [6]: 123 | 3) Timing-sequence response and specificity C2 [6]: 1244 | 3) Timing-sequence response and specificity C3 [6]: 2 | 3) Timing-sequence response and specificity C4 [6]: 0.161 | Total single peptide [6]: 5.1 | 1) 95 percentile grouping number A [7]: 5 | 1) 95 percentile grouping number A1 [7]: 0.09 | 2) Mouse performance B [7]: 2.7 | 2) Mouse performance B1 [7]: 5 | 2) Mouse performance B2 [7]: 4 | 2) Mouse performance B3 [7]: 1 | 3) Timing-sequence response and specificity C [7]: 1 | 3) Timing-sequence response and specificity C1 [7]: 100 | 3) Timing-sequence response and specificity C2 [7]: 1244 | 3) Timing-sequence response and specificity C3 [7]: 3 | 3) Timing-sequence response and specificity C4 [7]: 0.241 | Total single peptide [7]: 20.9 | 1) 95 percentile grouping number A [8]: 5 | 1) 95 percentile grouping number A1 [8]: 0.08 | 2) Mouse performance B [8]: 2.9 | 2) Mouse performance B1 [8]: 5 | 2) Mouse performance B2 [8]: 5 | 2) Mouse performance B3 [8]: 1 | 3) Timing-sequence response and specificity C [8]: 1 | 3) Timing-sequence response and specificity C1 [8]: 260 | 3) Timing-sequence response and specificity C2 [8]: 1244 | 3) Timing-sequence response and specificity C3 [8]: 3 | 3) Timing-sequence response and specificity C4 [8]: 0.241 | Total single peptide [8]: 21.3 | 1) 95 percentile grouping number A [9]: 3.5 | 1) 95 percentile grouping number A1 [9]: 0.05 | 2) Mouse performance B [9]: 2.9 | 2) Mouse performance B1 [9]: 5 | 2) Mouse performance B2 [9]: 5 | 2) Mouse performance B3 [9]: 1 | 3) Timing-sequence response and specificity C [9]: 0 | 3) Timing-sequence response and specificity C1 [9]: 153 | 3) Timing-sequence response and specificity C2 [9]: 1244 | 3) Timing-sequence response and specificity C3 [9]: 0 | 3) Timing-sequence response and specificity C4 [9]: 0.000 | Total single peptide [9]: 16.3

ALDPLSETKCT (SARS-CoV-2) [SEQ ID NO:4]
B1: D 0-D 14 95 percentile rise in the number of mice [1]: 2 | B2: D 0-D 21 95 percentile rise in the number of mice [1]: 3 | B3: D 14-D 21 95 percentile rise in the number of mice [1]: 2 | B4: D 21-D 28 95 percentile rise in the number of mice [1]: 0 | A1: difference between a highest median and a D 0 median (95 percentile) [2]: 0.15 | A2: whether the 95 percentile of the last sampling is increased compared with the end point [2]: N | Total single peptide [3]: 17.7 | A: 95 percentile grouping number score [1]: 4.5 | B: Mouse performance score [1]: 1.6 | C1: #A timing-sequence response peptide fragment set [1]: 1494 | C2: #B vaccine specificity peptide fragment set [1]: 190 | C3: Intersection of A and B [1]: 2 | C4: Percentage of the intersection in set B [1]: 1.053 | C: Timing-sequence response and specificity score [1]: 1

NLDSKVGGNYNY [SEQ ID NO:15]
B1: D 0-D 14 95 percentile rise in the number of mice [1]: 3 | B2: D 0-D 21 95 percentile rise in the number of mice [1]: 3 | B3: D 14-D 21 95 percentile rise in the number of mice [1]: 1 | B4: D 21-D 28 95 percentile rise in the number of mice [1]: 0 | A1: difference between a highest median and a D 0 median (95 percentile) [2]: 0.15 | A2: whether the 95 percentile of the last sampling is increased compared with the end point [2]: N | Total single peptide [3]: 17.4 | A: 95 percentile grouping number score [1]: 4.5 | B: Mouse performance score [1]: 1.7 | C1: #A timing-sequence response peptide fragment set [1]: 257 | C2: #B vaccine specificity peptide fragment set [1]: 682 | C3: Intersection of A and B [1]: 3 | C4: Percentage of the intersection in set B [1]: 0.440 | C: Timing-sequence response and specificity score [1]: 0.5

DNQDLNGNWY (SARS-CoV-2) [SEQ ID NO:31]
B1: D 0-D 14 95 percentile rise in the number of mice [1]: 2 | B2: D 0-D 21 95 percentile rise in the number of mice [1]: 3 | B3: D 14-D 21 95 percentile rise in the number of mice [1]: 2 | B4: D 21-D 28 95 percentile rise in the number of mice [1]: 0 | A1: difference between a highest median and a D 0 median (95 percentile) [2]: 0.93 | A2: whether the 95 percentile of the last sampling is increased compared with the end point [2]: N | Total single peptide [3]: 14.2 | A: 95 percentile grouping number score [1]: 3.5 | B: Mouse performance score [1]: 1.6 | C1: #A timing-sequence response peptide fragment set [1]: 511 | C2: #B vaccine specificity peptide fragment set [1]: 364 | C3: Intersection of A and B [1]: 1 | C4: Percentage of the intersection in set B [1]: 0.275 | C: Timing-sequence response and specificity score [1]: 0.5

IRGGDGKMKD (SARS-CoV-2) [SEQ ID NO:40]
B1: D 0-D 14 95 percentile rise in the number of mice [1]: 3 | B2: D 0-D 21 95 percentile rise in the number of mice [1]: 3 | B3: D 14-D 21 95 percentile rise in the number of mice [1]: 2 | B4: D 21-D 28 95 percentile rise in the number of mice [1]: 0 | A1: difference between a highest median and a D 0 median (95 percentile) [2]: 0.11 | A2: whether the 95 percentile of the last sampling is increased compared with the end point [2]: N | Total single peptide [3]: 18.3 | A: 95 percentile grouping number score [1]: 4.5 | B: Mouse performance score [1]: 1.9 | C1: #A timing-sequence response peptide fragment set [1]: 823 | C2: #B vaccine specificity peptide fragment set [1]: 398 | C3: Intersection of A and B [1]: 7 | C4: Percentage of the intersection in set B [1]: 1.759 | C: Timing-sequence response and specificity score [1]: 1

GRLQSLQTY (SARS-CoV-2) [SEQ ID NO:5]
B1: D 0-D 14 95 percentile rise in the number of mice [1]: 3 | B2: D 0-D 21 95 percentile rise in the number of mice [1]: 2 | B3: D 14-D 21 95 percentile rise in the number of mice [1]: 0 | B4: D 21-D 28 95 percentile rise in the number of mice [1]: 2 | A1: difference between a highest median and a D 0 median (95 percentile) [2]: 0.11 | A2: whether the 95 percentile of the last sampling is increased compared with the end point [2]: Y | Total single peptide [3]: 18.9 | A: 95 percentile grouping number score [1]: 5 | B: Mouse performance score [1]: 1.7 | C1: #A timing-sequence response peptide fragment set [1]: 133 | C2: #B vaccine specificity peptide fragment set [1]: 431 | C3: Intersection of A and B [1]: 1 | C4: Percentage of the intersection in set B [1]: 0.232 | C: Timing-sequence response and specificity score [1]: 0.5

KKPASRELKVTF [SEQ ID NO:24]
B1: D 0-D 14 95 percentile rise in the number of mice [1]: 3 | B2: D 0-D 21 95 percentile rise in the number of mice [1]: 3 | B3: D 14-D 21 95 percentile rise in the number of mice [1]: 1 | B4: D 21-D 28 95 percentile rise in the number of mice [1]: 2 | A1: difference between a highest median and a D 0 median (95 percentile) [2]: 0.10 | A2: whether the 95 percentile of the last sampling is increased compared with the end point [2]: Y | Total single peptide [3]: 18.2 | A: 95 percentile grouping number score [1]: 4.5 | B: Mouse performance score [1]: 2.1 | C1: #A timing-sequence response peptide fragment set [1]: 145 | C2: #B vaccine specificity peptide fragment set [1]: 529 | C3: Intersection of A and B [1]: 1 | C4: Percentage of the intersection in set B [1]: 0.189 | C: Timing-sequence response and specificity score [1]: 0.5

HGKEDLKF (SARS-CoV-2) [SEQ ID NO:23]
B1: D 0-D 14 95 percentile rise in the number of mice [1]: 3 | B2: D 0-D 21 95 percentile rise in the number of mice [1]: 3 | B3: D 14-D 21 95 percentile rise in the number of mice [1]: 0 | B4: D 21-D 28 95 percentile rise in the number of mice [1]: 1 | A1: difference between a highest median and a D 0 median (95 percentile) [2]: 0.20 | A2: whether the 95 percentile of the last sampling is increased compared with the end point [2]: N | Total single peptide [3]: 19.4 | A: 95 percentile grouping number score [1]: 5 | B: Mouse performance score [1]: 1.7 | C1: #A timing-sequence response peptide fragment set [1]: 1494 | C2: #B vaccine specificity peptide fragment set [1]: 190 | C3: Intersection of A and B [1]: 2 | C4: Percentage of the intersection in set B [1]: 1.053 | C: Timing-sequence response and specificity score [1]: 1
